Calls of active or inactive are those of the source. The calls are words filed in the database; no cut-off is given here.

This note sets out measurements from ChEMBL document CHEMBL2396625 (Bioorg Med Chem Lett, 2013).

For test [1], the target named is Dual specificity protein phosphatase 3 (Homo sapiens) (UniProt P51452). The test is described as follows: Inhibition of VHR (unknown origin) using DiFMUP as substrate at 5 uM relative to control.
The subject of a further test is ASPC1. As to the kind of experiment: Antimigratory activity against human AsPC1 cells overexpressing PRL3 at 10 to 20 uM after 20 hrs by crystal violet staining-based light microscopic analysis. The format is functional, cell-based.
The test system of test [2] is DLD-1. The test is described as follows: Antimigratory activity against human DLD1 cells overexpressing PRL3 at 10 ug/ml after 20 hrs by crystal violet staining-based light microscopic analysis relative to control. The test is classed as functional. The settings on record: DLD-1, 20 h.
For test [3], the target named is T1, Protein tyrosine phosphatase type IVA 3 (Homo sapiens, UniProt O75365). The test is described as follows: Inhibition of His6-tagged full length human PRL3 using DiFMUP as substrate at 5 uM relative to control.
T1 sequence (O75365 whole entry): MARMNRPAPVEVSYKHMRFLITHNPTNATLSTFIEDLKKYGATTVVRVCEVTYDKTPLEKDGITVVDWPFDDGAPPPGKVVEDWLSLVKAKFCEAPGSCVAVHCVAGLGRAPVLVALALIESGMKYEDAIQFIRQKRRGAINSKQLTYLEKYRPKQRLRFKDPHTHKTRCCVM
For test [4], the system named is DLD-1. The test is described as follows: Antimigratory activity against human DLD1 cells overexpressing PRL3 at 10 uM after 20 hrs by crystal violet staining-based light microscopic analysis. The format is functional, cell-based.
The target of test [5] is T1, Protein tyrosine phosphatase type IVA 3. As to the kind of experiment: Inhibition of human His6-tagged full length PRL3 assessed as inhibition of DiFMUP dephosphorylation.
In test [6] the target is Tyrosine-protein phosphatase YopH (Yersinia enterocolitica) (UniProt P15273). The test is described as follows: Inhibition of yopH (unknown origin) using DiFMUP as substrate at 5 uM relative to control.
The target of test [7] is T1, Protein tyrosine phosphatase type IVA 3. As to the kind of experiment: Inhibition of PRL3 in human DLD1 cells assessed as increase in phospho-ezrin level at 20 uM by immunoblot analysis relative to control. The test is classed as cell-based. The settings on record: DLD-1. For orientation: In western blotting, separated proteins are transferred to a membrane and probed.

The target in test [8] is T2, Dual specificity protein phosphatase 10 (Homo sapiens) (UniProt Q9Y6W6).
T2 sequence (whole entry): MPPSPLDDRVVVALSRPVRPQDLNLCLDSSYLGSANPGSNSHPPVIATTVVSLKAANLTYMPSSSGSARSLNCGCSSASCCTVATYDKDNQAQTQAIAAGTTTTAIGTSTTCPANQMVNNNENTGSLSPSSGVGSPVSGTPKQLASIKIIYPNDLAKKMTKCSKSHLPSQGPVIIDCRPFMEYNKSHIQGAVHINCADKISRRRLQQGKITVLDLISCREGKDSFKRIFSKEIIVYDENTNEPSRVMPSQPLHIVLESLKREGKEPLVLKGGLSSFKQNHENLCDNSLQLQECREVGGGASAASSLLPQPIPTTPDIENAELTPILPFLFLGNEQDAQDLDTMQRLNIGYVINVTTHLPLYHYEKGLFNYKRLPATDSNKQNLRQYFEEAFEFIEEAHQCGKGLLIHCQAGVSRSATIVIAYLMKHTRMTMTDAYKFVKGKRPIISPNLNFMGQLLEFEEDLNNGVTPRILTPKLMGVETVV
The test is described as follows: Inhibition of MKP5 (unknown origin) using DiFMUP as substrate at 5 uM relative to control.

The next test concerns MIA PaCa-2. The test is described as follows: Antimigratory activity against human MIAPaCa2 cells overexpressing PRL3 at 10 to 20 uM after 20 hrs by crystal violet staining-based light microscopic analysis. The test is classed as functional, cell-based.
The target in test [9] is T3, Tyrosine-protein phosphatase non-receptor type 1 (Homo sapiens) (UniProt P18031).
T3 sequence (whole entry): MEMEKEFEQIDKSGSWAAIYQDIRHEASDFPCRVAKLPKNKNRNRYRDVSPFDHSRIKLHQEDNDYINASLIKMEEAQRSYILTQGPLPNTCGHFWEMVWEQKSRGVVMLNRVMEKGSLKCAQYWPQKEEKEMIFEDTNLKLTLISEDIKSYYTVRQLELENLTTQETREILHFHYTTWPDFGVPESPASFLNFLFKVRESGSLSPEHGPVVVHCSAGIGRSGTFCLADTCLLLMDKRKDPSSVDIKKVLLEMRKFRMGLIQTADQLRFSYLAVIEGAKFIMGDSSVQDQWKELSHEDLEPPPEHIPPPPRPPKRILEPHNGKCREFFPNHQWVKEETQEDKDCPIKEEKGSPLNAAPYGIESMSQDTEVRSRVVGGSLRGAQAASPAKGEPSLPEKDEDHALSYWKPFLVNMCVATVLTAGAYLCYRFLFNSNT
As to the kind of experiment: Inhibition of PTP1B (unknown origin) using DiFMUP as substrate at 5 uM relative to control.

The target in test [10] is T4, Tyrosine-protein phosphatase non-receptor type 2 (Homo sapiens) (UniProt P17706).
T4 sequence (whole entry): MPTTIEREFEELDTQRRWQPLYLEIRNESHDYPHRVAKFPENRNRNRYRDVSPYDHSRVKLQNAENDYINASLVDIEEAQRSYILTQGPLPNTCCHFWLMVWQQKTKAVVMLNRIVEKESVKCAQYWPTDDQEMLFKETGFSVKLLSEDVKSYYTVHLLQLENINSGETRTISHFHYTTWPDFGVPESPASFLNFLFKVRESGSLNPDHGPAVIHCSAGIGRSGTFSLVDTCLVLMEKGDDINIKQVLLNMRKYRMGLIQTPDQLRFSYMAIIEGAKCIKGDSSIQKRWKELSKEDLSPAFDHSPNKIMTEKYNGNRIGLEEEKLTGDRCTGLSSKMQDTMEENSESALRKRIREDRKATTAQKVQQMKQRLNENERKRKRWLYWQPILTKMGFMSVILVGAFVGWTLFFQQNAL
The test is described as follows: Inhibition of TCPTP (unknown origin) using DiFMUP as substrate at 5 uM relative to control.

Test [11] deals with DLD-1. The test is described as follows: Antiinvasive activity against human DLD1 cells overexpressing PRL3 assessed as decrease in snail expression at […] after 24 hrs by immunoblot analysis. The format is functional, cell-based.
Test [12] deals with T1, Protein tyrosine phosphatase type IVA 3. As to the kind of experiment: Inhibition of human His6-tagged full length PRL3 assessed as inhibition of DiFMUP dephosphorylation at 5 ug/ml relative to control.
In test [13] the test system is DLD-1. The test is described as follows: Antiinvasive activity against human DLD1 cells overexpressing PRL3 assessed as increase in E-cadherin expression at 10 to 50 uM after 24 hrs by immunoblot analysis. The test is classed as functional, cell-based.
Another test concerns MDA-MB-231. The test is described as follows: Antimigratory activity against human MDA-MB-231 cells expressing low level of PRL3 at 10 to 20 uM after 20 hrs by crystal violet staining-based light microscopic analysis. The format is functional, cell-based.
For test [14], the target named is T1, Protein tyrosine phosphatase type IVA 3. As to the kind of experiment: Inhibition of PRL3 in human DLD1 cells assessed as increase in phospho-KRT8 level at 10 to 20 uM by immunoblot analysis. The test is classed as cell-based. Particulars: DLD-1.

Sequence of Dual specificity protein phosphatase 3 (Homo sapiens) (P51452 whole entry, looked up): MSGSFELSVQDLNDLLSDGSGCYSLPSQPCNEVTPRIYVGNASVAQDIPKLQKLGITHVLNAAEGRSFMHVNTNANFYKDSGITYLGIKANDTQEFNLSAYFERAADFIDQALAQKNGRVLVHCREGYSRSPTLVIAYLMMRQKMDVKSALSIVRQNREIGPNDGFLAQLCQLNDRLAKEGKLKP

On to `COc1ccccc1COc1ccccc1/C=C/C=C1\SC(=S)NC1=O`, for which the inhibition in test [1] is 3%; in test [3], 73%; in test [5] it was “Dose-dependent effect”; in [6], 9%; in test [8] it was 1%; in test [9], 8%. Further, the inhibition amounted to 1% in [10] and 78.8% in test [12]. Besides, the outcome in the test on ASPC1, in the test with DLD-1 [4], with MIA PaCa-2, with DLD-1 [11] and with DLD-1 [13] was Active. The compound further came in with an inhibition at 10 µg/mL in the test with DLD-1 [2] of 98%. Also, the IC50 in [5] worked out at 800 nM. In test [7], the fold change (FC) is over 3. For the same compound, in the test with MDA-MB-231, the result was inactive. In addition, in test [14], the inhibition entry was “Active”.

In the case of `O=C1NC(=S)S/C1=C\c1cc(Br)ccc1OCc1ccccc1Br`, the inhibition turned out to be 7% in test [1]; 14% in [6]; 5% in test [8]; 11% in [9]; 9% in test [10]. Also, the result in the test with ASPC1, with DLD-1 [4] and with MIA PaCa-2 was Active. For the same compound, the inhibition at 10 µg/mL in the test on DLD-1 [2] amounted to 95%. In addition, in the test with MDA-MB-231, the result was inactive.

As usually defined, the inhibition is the drop in the measured response relative to a control, in per cent. Usually IC50 stands for the concentration that gives 50% inhibition.
